The text below walks through data of ChEMBL document CHEMBL3576802 (J Med Chem, 2015).

Where a SMILES comes first, the peptide text is derived from it. Bridges are numbered along the chain shown (N, C = ends). [ ]: non-standard residue; d: D form. Bip = N[C@@H](Cc1ccc(-c2ccccc2)cc1)C(=O)O; 1Nal = N[C@@H](Cc1cccc2ccccc12)C(=O)O

Assay type in all cases: cell-based
Assay [1] has as its target Melanocortin receptor 3 (Mus musculus, UniProt P33033). Put plainly: Displacement of MTII from mouse MC3R expressed in HEK293 cells. Conditions: for Kb: read-out: pA2 (converted); call rule not given here.
In assay [2] the target is Melanocortin receptor 4 (Mus musculus, UniProt P56450). Put plainly: Displacement of MTII from mouse MC4R expressed in HEK293 cells. Conditions: for Kb: read-out: pA2 (converted).
In assay [3] the target is Melanocyte-stimulating hormone receptor (Mus musculus, UniProt Q01727). The experiment in a line: Agonist activity at mouse MC1R expressed in HEK293 cells by cAMP functional bioassay.
The target of assay [4] is Melanocyte-stimulating hormone receptor (Mus musculus) (UniProt Q01727). Put plainly: Agonist activity at mouse MC1R expressed in HEK293 cells at 100 uM by cAMP functional bioassay.
Sequence of Melanocyte-stimulating hormone receptor (Mus musculus) (Q01727 whole entry, looked up): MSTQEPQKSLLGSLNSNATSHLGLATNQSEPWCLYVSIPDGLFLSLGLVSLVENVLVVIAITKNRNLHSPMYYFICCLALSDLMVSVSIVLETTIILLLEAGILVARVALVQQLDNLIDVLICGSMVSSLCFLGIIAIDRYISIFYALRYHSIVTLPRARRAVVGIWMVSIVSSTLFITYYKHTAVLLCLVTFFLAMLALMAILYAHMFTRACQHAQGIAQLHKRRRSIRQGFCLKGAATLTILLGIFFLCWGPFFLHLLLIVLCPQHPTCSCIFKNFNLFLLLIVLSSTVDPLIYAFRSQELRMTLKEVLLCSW

Sequence of Melanocortin receptor 4 (P56450 whole entry): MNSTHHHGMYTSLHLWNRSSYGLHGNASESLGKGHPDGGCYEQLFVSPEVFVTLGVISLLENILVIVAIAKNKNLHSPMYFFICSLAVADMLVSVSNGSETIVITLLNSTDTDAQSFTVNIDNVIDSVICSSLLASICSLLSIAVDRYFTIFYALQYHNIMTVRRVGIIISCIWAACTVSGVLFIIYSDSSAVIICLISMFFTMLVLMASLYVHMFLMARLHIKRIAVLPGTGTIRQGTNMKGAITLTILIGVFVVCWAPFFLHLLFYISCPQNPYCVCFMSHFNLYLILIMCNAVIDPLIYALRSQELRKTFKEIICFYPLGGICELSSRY
Sequence of Melanocyte-stimulating hormone receptor (Q01727 whole entry): as the sequence (Q01727 whole entry, looked up) above
Sequence of Melanocortin receptor 3 (P33033 whole entry): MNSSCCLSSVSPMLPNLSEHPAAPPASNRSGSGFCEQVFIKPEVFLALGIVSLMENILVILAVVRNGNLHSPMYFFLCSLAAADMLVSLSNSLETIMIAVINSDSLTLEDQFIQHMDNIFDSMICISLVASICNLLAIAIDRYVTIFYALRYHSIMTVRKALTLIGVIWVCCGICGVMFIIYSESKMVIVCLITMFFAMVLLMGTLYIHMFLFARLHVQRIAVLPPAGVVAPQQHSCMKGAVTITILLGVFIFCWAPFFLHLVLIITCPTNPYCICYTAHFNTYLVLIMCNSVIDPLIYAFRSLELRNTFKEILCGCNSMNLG

As to `C[C@@H]1NC(=O)[C@H](CCCCN)NC(=O)[C@H](Cc2ccccc2)NC(=O)[C@H](Cc2ccccc2)NC(=O)[C@H](CCCNC(=N)N)NC(=O)[C@@H]2CCCN2C(=O)[C@H]2CCCN2C(=O)[C@H](Cc2ccccc2)NC1=O`, in assay [1], the Ki – broadly, a dissociation constant, usually derived from enzyme kinetics or from competition with a known ligand – amounted to 100 nM and the Kb is 100 nM. In assay [2], affinity was put at a Ki of 5 nM and the Kb is 5.01 nM.

For the molecule `C[C@@H]1NC(=O)[C@H](CC(N)=O)NC(=O)[C@H](Cc2ccccc2)NC(=O)[C@H](Cc2ccccc2)NC(=O)[C@H](CCCNC(=N)N)NC(=O)[C@H]([C@@H](C)O)NC(=O)[C@H](Cc2ccc(O)cc2)NC(=O)[C@@H]2CCCN2C(=O)[C@H]2CCCN2C(=O)[C@H](Cc2ccc(O)cc2)NC(=O)[C@H]([C@@H](C)O)NC(=O)[C@H](Cc2ccccc2)NC1=O` (cyclo(YTRFFNAFTY[dP]P)), the Kb is 1260 nM in assay [1] and 158 nM in assay [2]. Besides, in assay [3], the EC50 (usually the concentration at which the effect is half-maximal) worked out at 11.6 µM.

`CC(=O)N[C@H]1CSSC[C@@H](C(N)=O)NC(=O)[C@H](Cc2ccccc2)NC(=O)[C@H](C)NC(=O)[C@H](CC(N)=O)NC(=O)[C@H](Cc2ccccc2)NC(=O)[C@H](Cc2ccccc2)NC(=O)[C@H](CCCNC(=N)N)NC1=O`: the IC50 entry in assay [2] (hek293) is reported as “Not Active”.

Regarding `C[C@@H]1NC(=O)[C@H](CC(N)=O)NC(=O)C(Cc2cccc3ccccc23)NC(=O)[C@H](Cc2ccccc2)NC(=O)[C@H](CCCNC(=N)N)NC(=O)[C@@H]2CCCN2C(=O)[C@H]2CCCN2C(=O)[C@H](Cc2ccccc2)NC1=O` (stereo not given in full), in assay [1], the affinity corresponds to a Ki of 2500 nM and the Kb is 2510 nM.

For the molecule `C[C@@H]1NC(=O)[C@H](CC(N)=O)NC(=O)[C@H](Cc2ccccc2)NC(=O)[C@H](c2ccccc2)NC(=O)[C@H](CCCNC(=N)N)NC(=O)[C@@H]2CCCN2C(=O)[C@H]2CCCN2C(=O)[C@H](Cc2ccccc2)NC1=O`, in assay [3] (hek293), the EC50 was found to be 13.6 µM.

In the case of `C[C@H](NC(=O)[C@H](Cc1ccc(O)cc1)NC(=O)[C@@H]1CSSC[C@H](NC(=O)[C@H](Cc2ccc(O)cc2)NC(=O)[C@H](C)NC(=O)[C@@H](N)[C@@H](C)O)C(=O)N[C@@H](CCCNC(=N)N)C(=O)N[C@@H](Cc2ccccc2)C(=O)N[C@@H](Cc2ccccc2)C(=O)N[C@@H](CC(N)=O)C(=O)N[C@@H](C)C(=O)N[C@@H](Cc2ccccc2)C(=O)N1)C(=O)N[C@@H](CCCNC(=N)N)C(N)=O` (H-TAYCRFFNAFCYAR-NH2; disulfide 4-11), the Kb in assay [1] was 794 nM.

On to `C[C@@H]1NC(=O)[C@H](CC(N)=O)NC(=O)[C@H](CCc2ccccc2)NC(=O)[C@H](Cc2ccccc2)NC(=O)[C@H](CCCNC(=N)N)NC(=O)[C@@H]2CCCN2C(=O)[C@H]2CCCN2C(=O)[C@H](Cc2ccccc2)NC1=O`, for which, in assay [3] (hek293), the EC50 amounted to 20.3 µM. This lies in the double-digit micromolar range.

As to `C[C@@H]1NC(=O)[C@H](CC(N)=O)NC(=O)[C@H](Cc2ccc3ccccc3c2)NC(=O)[C@H](Cc2ccccc2)NC(=O)[C@H](CCCNC(=N)N)NC(=O)[C@@H]2CCCN2C(=O)[C@H]2CCCN2C(=O)[C@H](Cc2ccccc2)NC1=O`, in assay [2] (hek293), affinity was put at a Ki of 63 nM and the pA2 – broadly, the negative logarithm of the molar antagonist concentration that doubles the agonist concentration needed for the same response – amounted to 7.2. In assay [3] (hek293), this molecule showed an EC50 of 19.6 µM.

In assay [2] (hek293), `C[C@@H]1NC(=O)[C@H](CC(N)=O)NC(=O)[C@H](c2ccccc2)NC(=O)[C@H](Cc2ccccc2)NC(=O)[C@H](CCCNC(=N)N)NC(=O)[C@@H]2CCCN2C(=O)[C@H]2CCCN2C(=O)[C@H](Cc2ccccc2)NC1=O` registered a Ki of 1300 nM and a pA2 of 5.9. Further, the EC50 in assay [3] (hek293) amounted to 21 µM.

For the molecule `C[C@@H]1NC(=O)[C@H](CC(N)=O)NC(=O)[C@H](Cc2ccccc2)NC(=O)[C@H](Cc2ccc(-c3ccccc3)cc2)NC(=O)[C@H](CCCNC(=N)N)NC(=O)[C@@H]2CCCN2C(=O)[C@H]2CCCN2C(=O)[C@H](Cc2ccccc2)NC1=O` (cyclo(R[Bip]FNAF[dP]P)), the Ki in assay [1] is 630 nM; in assay [2] it was 160 nM. For the same molecule, the Kb in assay [1] is 631 nM; in assay [2], 158 nM. This molecule also had an EC50 in assay [3] of 0.8 µM.

Turning to `C[C@@H]1NC(=O)[C@H](CC(N)=O)NC(=O)[C@@H]2Cc3ccccc3CN2C(=O)[C@H](Cc2ccccc2)NC(=O)[C@H](CCCNC(=N)N)NC(=O)[C@@H]2CCCN2C(=O)[C@H]2CCCN2C(=O)[C@H](Cc2ccccc2)NC1=O`, in assay [3] (hek293), the EC50 was found to be 3.9 µM. This counts as single-digit micromolar.

On to `C[C@@H]1NC(=O)[C@H](CC(N)=O)NC(=O)[C@H](Cc2ccccc2)NC(=O)[C@H](Cc2ccc3ccccc3c2)NC(=O)[C@H](CCCNC(=N)N)NC(=O)[C@@H]2CCCN2C(=O)[C@H]2CCCN2C(=O)[C@H](Cc2ccccc2)NC1=O`, for which, in assay [2] (hek293), the inhibition constant Ki is 100 nM and the pA2 is given as 7. In addition, the 50% effective concentration (EC50) in assay [3] (hek293) was determined as 8.8 µM.

In assay [2] (hek293), `C[C@@H]1NC(=O)[C@H](CC(N)=O)NC(=O)[C@H](Cc2cccc3ccccc23)NC(=O)[C@H](Cc2ccccc2)NC(=O)[C@H](CCCNC(=N)N)NC(=O)[C@@H]2CCCN2C(=O)[C@H]2CCCN2C(=O)[C@H](Cc2ccccc2)NC1=O` had a Ki of 16 nM and a pA2 of 7.8. In assay [3] (hek293), the EC50 came to 12.7 µM.

In the case of `CC(=O)N[C@H](C(=O)N[C@H]1CSSC[C@@H](C(=O)N[C@@H](CCCNC(=N)N)C(N)=O)NC(=O)[C@H](Cc2ccc(O)cc2)NC(=O)[C@H]2CSSC[C@H](NC(=O)[C@H](Cc3ccc(O)cc3)NC1=O)C(=O)N[C@@H](CCCNC(=N)N)C(=O)N[C@@H](Cc1ccccc1)C(=O)N[C@@H](Cc1ccccc1)C(=O)N[C@@H](CC(N)=O)C(=O)N[C@@H](C)C(=O)N[C@@H](Cc1ccccc1)C(=O)N2)[C@@H](C)O`, in assay [1], the Kb was 631 nM.

The molecule `C[C@@H]1NC(=O)[C@H](CC(N)=O)NC(=O)[C@H](Cc2ccccc2)NC(=O)[C@H](Cc2ccccc2)NC(=O)[C@H](CCCNC(=N)N)NC(=O)[C@@H]2CCCN2C(=O)[C@H]2CCCN2C(=O)[C@H](Cc2ccccc2)NC1=O` showed a 50% effective concentration (EC50) in assay [3] of 4.5 µM.

In assay [2] (hek293), `C[C@@H]1NC(=O)[C@H](CC(N)=O)NC(=O)[C@H](Cc2ccccc2)NC(=O)[C@H](CCc2ccccc2)NC(=O)[C@H](CCCNC(=N)N)NC(=O)[C@@H]2CCCN2C(=O)[C@H]2CCCN2C(=O)[C@H](Cc2ccccc2)NC1=O` came in with a Ki of 100 nM and a pA2 of 7. Moreover, in assay [3] (hek293), the EC50 was 1.5 µM.

With `CC(=O)N[C@H](C(=O)N[C@H]1CSSC[C@@H](C(=O)N[C@@H](CCCNC(=N)N)C(N)=O)NC(=O)[C@H](Cc2ccc(O)cc2)NC(=O)[C@@H]2CSSC[C@H](NC(=O)[C@H](Cc3ccc(O)cc3)NC1=O)C(=O)N[C@@H](CCCNC(=N)N)C(=O)N[C@@H](Cc1ccccc1)C(=O)N[C@@H](Cc1ccccc1)C(=O)N[C@@H](CC(N)=O)C(=O)N[C@@H](C)C(=O)N[C@@H](Cc1ccccc1)C(=O)N2)[C@@H](C)O`, the Kb in assay [2] is 63.1 nM.

Turning to `C[C@@H]1NC(=O)[C@H](CC(N)=O)NC(=O)[C@H](Cc2ccccc2)NC(=O)C(Cc2ccc3ccccc3c2)NC(=O)[C@H](CCCNC(=N)N)NC(=O)[C@@H]2CCCN2C(=O)[C@H]2CCCN2C(=O)[C@H](Cc2ccccc2)NC1=O` (stereo not given in full), in assay [1], the Ki is 1000 nM and the Kb is 1000 nM.

In assay [4], `C[C@@H]1NC(=O)C(CN)NC(=O)[C@H](Cc2ccccc2)NC(=O)[C@H](Cc2ccccc2)NC(=O)[C@H](CCCNC(=N)N)NC(=O)[C@@H]2CCCN2C(=O)[C@H]2CCCN2C(=O)[C@H](Cc2ccccc2)NC1=O` (stereo not given in full) gave an Activity of 75%. Besides, in assay [1], affinity was put at a Ki of 130 nM and the Kb is 126 nM.

In assay [4], `C[C@@H]1NC(=O)CNC(=O)[C@H](Cc2ccccc2)NC(=O)[C@H](Cc2ccccc2)NC(=O)[C@H](CCCNC(=N)N)NC(=O)[C@@H]2CCCN2C(=O)[C@H]2CCCN2C(=O)[C@H](Cc2ccccc2)NC1=O` registered an Activity of 50%. Besides, in assay [1], the affinity, expressed as Ki, was 25 nM and the Kb is 25.1 nM. Further, in assay [2], affinity was put at a Ki of 4 nM and the Kb is 3.98 nM.

With `C[C@@H]1NC(=O)[C@H](CC(N)=O)NC(=O)[C@H](Cc2ccc(-c3ccccc3)cc2)NC(=O)[C@H](Cc2ccccc2)NC(=O)[C@H](CCCNC(=N)N)NC(=O)[C@@H]2CCCN2C(=O)[C@H]2CCCN2C(=O)[C@H](Cc2ccccc2)NC1=O`, in assay [2], the Ki was found to be 160 nM and the Kb was 158 nM. The molecule further had an EC50 in assay [3] of 0.5 µM.

In assay [3], `C[C@@H]1NC(=O)[C@H](Cc2ccccc2)NC(=O)[C@H](C)NC(=O)[C@H](CC(N)=O)NC(=O)[C@H](Cc2ccccc2)NC(=O)[C@H](Cc2ccccc2)NC(=O)[C@H](CCCNC(=N)N)NC(=O)[C@H](C)NC(=O)[C@H](Cc2ccc(O)cc2)NC(=O)[C@@H]2CCCN2C(=O)[C@H]2CCCN2C(=O)[C@H](Cc2ccc(O)cc2)NC1=O` displayed a half-maximal effective concentration (EC50) of 17.6 µM.

On to `C[C@@H]1NC(=O)C(CCCN)NC(=O)[C@H](Cc2ccccc2)NC(=O)[C@H](Cc2ccccc2)NC(=O)[C@H](CCCNC(=N)N)NC(=O)[C@@H]2CCCN2C(=O)[C@H]2CCCN2C(=O)[C@H](Cc2ccccc2)NC1=O` (stereo not given in full), for which, in assay [4], the Activity amounted to 30%. In assay [1], affinity was put at a Ki of 160 nM and the Kb is 158 nM.

The molecule `C[C@@H]1NC(=O)C(CCN)NC(=O)[C@H](Cc2ccccc2)NC(=O)[C@H](Cc2ccccc2)NC(=O)[C@H](CCCNC(=N)N)NC(=O)[C@@H]2CCCN2C(=O)[C@H]2CCCN2C(=O)[C@H](Cc2ccccc2)NC1=O` (stereo not given in full) returned an Activity in assay [4] of 50%. Moreover, in assay [1], the Ki worked out at 100 nM and the Kb was 100 nM.

For the molecule `C[C@@H]1NC(=O)[C@H](CC(N)=O)NC(=O)[C@H](Cc2ccccc2)NC(=O)[C@H](Cc2cccc3ccccc23)NC(=O)[C@H](CCCNC(=N)N)NC(=O)[C@@H]2CCCN2C(=O)[C@H]2CCCN2C(=O)[C@H](Cc2ccccc2)NC1=O` (cyclo(R[1Nal]FNAF[dP]P)), in assay [2] (hek293), the affinity, expressed as Ki, was 16 nM and the pA2 was found to be 7.8. This molecule had an EC50 in assay [3] (hek293) of 2.5 µM.
